Values quoted from earlier work as cited in patent US20100113469A1, “COMBINATION THERAPY FOR THE TREATMENT-OF LOWER URINARY TRACT SYMPTOMS” (MERCK & CO., INC., priority 2007, published 2010).

Key:
human bladders = conditions: in vitro
rats [1] = system: rats
rats [2] = conditions: intravenous
rats [3] = conditions: hyperreflexia paradigms, intravenous
rats [4] = conditions: detrusor instability paradigm, oral
patients = conditions: instilled directly into the bladder

Cc1ccc(-c2c3n(c(=O)c4ncccc24)CC[C@@H](C)CN(Cc2cc(C(F)(F)F)cc(C(F)(F)F)c2)C3=O)cc1 [TAK-637]
micturition reflex induced by electrical stimulation of the rostral brainstem near the locus coeruleus (decerebrate cats; 3 mg/kg i.v.): did not inhibit | voiding efficiency (decerebrate cats; decerebrate cats, 0.1, 0.3, 1 and 3 mg/kg i.v.): without any significant reduction in voiding efficiency | maximal increase in bladder capacity (decerebrate cats; decerebrate cats, 0.1, 0.3, 1 and 3 mg/kg i.v., dose-dependent): 94% | micturition reflex induced by topical application of capsaicin onto the bladder dome (guinea pig; guinea pig, in vivo): inhibited the micturition reflex | distension-induced rhythmic bladder contractions (guinea pig; guinea pig, systemic administration): decreased the number but not the amplitude | spinal vesico-vesical reflex induced by electrical stimulation of the proximal cut end of the pelvic nerve (guinea pig; spinal animals): inhibits the spinal vesico-vesical reflex | carbachol or electrical field stimulation induced contractions (isolated bladder strips): had no effect

C=C(C)[C@]12C[C@@H](C)[C@@]34O[C@](Cc5ccccc5)(O[C@@H]1[C@@H]3C=C(COC(=O)Cc1ccc(O)c(OC)c1)C[C@]1(O)C(=O)C(C)=C[C@@H]41)O2 [Resinferatoxin]
potency relative to capsaicin (C-fibers): ~100 fold

CCCCCCNC(=O)Nc1ccc(S(=O)(=O)Nc2ccc(CCNC[C@H](O)COc3ccc(O)cc3)cc2)cc1 [L-755507]
relaxation evoked in control versus obstructed human bladders (human bladders): equivalent

CC(=O)NC1(c2ccccc2)CCN(CC[C@H](CN(C)C(=O)c2ccccc2)c2ccc(Cl)c(Cl)c2)CC1 [SR 48968]
response in cyclophosphamide-induced model (rats [1]; 10 nmol/rat): moderate response

COc1ccccc1CC(=N)N1C[C@@H]2C(=O)CCC(c3ccccc3)(c3ccccc3)[C@@H]2C1 [RP 67580]
volume threshold (rats [1]; cyclophosphamide-induced bladder overactivity, i.t. vs i.v.): increased the volume threshold after i.t., but not i.v. administration

C[C@H](Cc1ccc2c(c1)OC(C(=O)[O-])(C(=O)[O-])O2)NC[C@H](O)c1cccc(Cl)c1.[Na+].[Na+] [CL316243]
bladder pressure (rats [2]): reduces bladder pressure | bladder capacity (rats [2]; cystometric studies): increases bladder capacity | residual urine volume (rats [2]; cystometric studies): without increasing residual urine volume | voiding interval (rats [3]): dose-dependently normalizes voiding interval | spontaneous bladder contractions (rats [4]): dose-dependent inhibition of spontaneous bladder contractions

COc1cc(CNC(=O)CCCC/C=C/C(C)C)ccc1O [Capsaicin, capsaicin]
patients with beneficial effects (i.e. increased bladder capacity) (patients): ~70%
